Assays:
rat hearts = details: isolated rat hearts, cited from earlier work
cardiac arrhythmias = details: cited from earlier work
Na^+ /H^+ exchanger = molecular target: T1, Na^+ /H^+ exchanger (Oryctolagus cuniculus, UniProt P23791); experiment: Inhibition of the Na+/H+ exchanger of rabbit erythrocytes (amiloride-sensitive sodium influx, flame photometry); type: cell-based, rabbit (White New Zealand); details: 37° C., pH 7.4, hyperosmolar salt-sucrose medium
T1 construct: endogenous in cells; host or cells: rabbit erythrocytes (whole blood of cholesterol-fed White New Zealand rabbits)
Source text: White New Zealand rabbits (Ivanovas) received a standard diet containing 2% cholesterol for six weeks, in order to activate Na^+ /H^+ exchange and thus to enable the Na^+ influx into the erythrocytes via […] exchange to be determined by flame photometry. The blood was taken from the auricular arteries and made incoagulable by means of 25 IU of potassium heparin. A portion of each sample was used for duplicate determination of the hematocrit by centrifugation. Aliquots of in each case 100 μl were used to measure the initial Na^+ content of the erythrocytes.
In order to determine the amiloride-sensitive sodium influx, 100 μl of each blood sample were incubated at 37° C. and at pH 7.4 in each case in 5 ml of a hyperosmolar salt-sucrose medium (in mmol/l: 140 NaCl, 3 KCl, 150 sucrose, 0.1 ouabain, 20 trishydroxymethylaminomethane). The erythrocytes were then washed three times with ice-cold MgCl2 -ouabain solution (in mmol/l: 112 MgCl2, 0.1 ouabain) and hemolyzed in 2.0 ml of distilled water. The intracellular sodium content was determined by flame photometry.
The net Na^+ influx was calculated from the difference between the initial sodium values and the sodium content of the erythrocytes after incubation. The amiloride-inhibitable sodium influx was given by the difference of the sodium content of the erythrocytes after incubation with and without 3×10^-4 mol/l of amiloride. […]

T1 sequence (P23791 whole entry): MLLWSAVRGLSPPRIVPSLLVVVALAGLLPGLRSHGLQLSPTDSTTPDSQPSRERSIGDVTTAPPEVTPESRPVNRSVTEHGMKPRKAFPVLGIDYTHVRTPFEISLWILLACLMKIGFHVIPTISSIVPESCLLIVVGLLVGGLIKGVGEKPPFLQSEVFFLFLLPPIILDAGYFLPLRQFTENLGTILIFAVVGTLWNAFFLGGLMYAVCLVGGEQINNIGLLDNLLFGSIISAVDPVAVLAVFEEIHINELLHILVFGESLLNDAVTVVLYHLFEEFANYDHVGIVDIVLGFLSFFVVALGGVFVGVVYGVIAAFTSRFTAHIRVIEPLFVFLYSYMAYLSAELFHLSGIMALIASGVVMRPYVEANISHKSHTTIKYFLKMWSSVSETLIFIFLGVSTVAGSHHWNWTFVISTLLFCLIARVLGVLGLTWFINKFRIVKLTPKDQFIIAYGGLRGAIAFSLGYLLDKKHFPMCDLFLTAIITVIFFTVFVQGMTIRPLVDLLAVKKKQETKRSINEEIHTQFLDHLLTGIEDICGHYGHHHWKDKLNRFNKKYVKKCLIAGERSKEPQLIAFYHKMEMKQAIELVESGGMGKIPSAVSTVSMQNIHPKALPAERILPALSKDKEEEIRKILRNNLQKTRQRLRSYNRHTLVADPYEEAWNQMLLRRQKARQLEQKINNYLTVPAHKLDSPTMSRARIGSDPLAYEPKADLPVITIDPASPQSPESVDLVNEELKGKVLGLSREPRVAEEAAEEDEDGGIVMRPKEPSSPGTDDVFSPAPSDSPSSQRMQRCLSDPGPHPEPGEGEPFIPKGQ

Question: What does the source list for `NC(N)=NC(=O)c1nc(Cl)c(N)nc1N` [amiloride]?
Answer: suppression of artificially induced ventricular fibrillation (rat hearts; Eur. Heart J. 9 (suppl.1): 167 (1988)): completely suppressed; antiarrhythmic effect (cardiac arrhythmias; Circulation 79, 1257-63 (1989)): only weakly pronounced; side-effects accompanying antiarrhythmic effect (cardiac arrhythmias; in vivo): hypotensive and saluretic effects

Question: For `CC(C)c1ccc(C(=O)N=C(N)N)cc1S(=O)(=O)C(F)(F)F` [Example 2, 4-Isopropyl-3-trifluoromethylsulfonylbenzoylguanidine], which IC50 (Na^+ /H^+ exchanger) is on record?
Answer: The IC50 was 70 nM.

Question: Which IC50 (Na^+ /H^+ exchanger) does the source give for `NC(N)=NC(=O)c1ccc(Oc2ccc(F)cc2)c(S(=O)(=O)C(F)(F)F)c1` [Example 1, 4-(4-Fluorophenoxy)-3-trifluoromethylsulfonylbenzoylguanidine] here?
Answer: The IC50 was 200 nM.

Question: With `CCN(c1nc(N)c(C(=O)N=C(N)N)nc1Cl)C(C)C` [ethylisopropylamiloride] as the compound, how does the “potency relative to amiloride in ventricular fibrillation model” value (rat hearts; compared with amiloride) read?
Answer: The value was “even more potent than amiloride”.

— patent publication US5571842A, “Perfluoroalkyl-substituted, benzoylguanidines, a process for their preparation, their use as a medicament or diagnostic agent, and a medicament containing them” (priority 1994, dated 1996)
